Reference: the supplement of paper PMC10949913
“And” between values parts separate entries of the source, which are not always exact repeats. Equal values may be shown once.

How the values were obtained:
Settings in all cases: 48 h
CU-ACC1 [1] = assay: AC50 viability; higher = less potent
Procedure, shortened: (§1)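 Three adrenocortical carcinoma cell lines were seeded at 500–1,000 cells/well in 5 µL medium in 1,536-well plates. 23 nL of each MIPE 5.0 library compound was added at 11 concentrations. After 48 h (per the protocol name), CellTiter-Glo was added for 15 minutes at room temperature and luminescence was read. Signals were normalised per plate to vehicle and empty-well controls. AC50 and area under the curve came from fitted concentration-response curves, keeping only inhibitory or non-responding curve classes.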

CU-ACC2 [2] = assay: AC50 viability; higher = less potent
Procedure, shortened: as §1

CU-ACC1 [3] = assay: area under concentration-response curve (viability) (AUC (a.u.)); higher = less active
Procedure, shortened: as §1

CU-ACC2 [4] = assay: as above
Procedure, shortened: as §1

NCI-H295R [5] = assay: as above
Procedure, shortened: as §1

NCI-H295R [6] = assay: AC50 viability; higher = less potent
Procedure, shortened: as §1

SMILES	AC50 viability (CU-ACC1 [1]) [µM]	AC50 viability (CU-ACC2 [2]) [µM]	area under concentration-response curve (CU-ACC1 [3])	area under concentration-response curve (CU-ACC2 [4])	area under concentration-response curve (NCI-H295R [5])	AC50 viability (NCI-H295R [6]) [µM]
C[C@@H]\1CC(=O)N\N=C1C2=CC=C(NN=C(C#N)C#N)C=C2	11.8	16.6	375	425	363	
C=C1/C(=C\C=C2/CCC[C@]3(C)[C@@H]([C@H](C)CCCC(C)(C)O)CC[C@@H]23)C[C@@H](O)C[C@@H]1O	16.6	14.8	408 and 314	329 and 416	364	
Oc1cc(-c2nc(-c3ccccc3)[nH]c2-c2ccncc2)ccc1Cl	20.9	16.6	464	514	522	
CN1C(=O)C(=C/2N(C(=O)N(C3CC3)C(=O)C2=C1/NC4=CC=C(I)C=C4F)C5=CC=CC(=C5)NC(C)=O)\C	0.742	0.0661	305	372	408	
COc1cc2c(N3CCN(C(=O)Nc4ccc(OC(C)C)cc4)CC3)ncnc2cc1OCCCN1CCCCC1	16.6	7.42	401	457		
O=C(c1ccc(Nc2nc(C3CC3)cn3c(-c4cn[nH]c4)cnc23)c(F)c1)N1CCOCC1	3.32	14.8	366	343		
C/C=C/C/C=C/CCC(=O)[C@H]1O[C@H]1C(N)=O	20.9	23.5	474	554		
COc1ccc(CNc2nc(N(CCO)CCO)nc3c2ncn3C(C)C)cc1	14.8	7.42	438	502		
CCC[C@H](NC(=O)/C(C#N)=C/c1cccc(Br)n1)c1ccccc1	26.3	26.3	468	565		
COc1cc(F)c(F)c(Nc2ccc(I)cc2F)c1N[S+](=O)([O-])C1(C[C@H](O)CO)CC1	16.6	6.61	421	476		
C[C@@H](O)[C@@H](C)Oc1nc(Nc2ccc([S+](=N)([O-])C3CC3)cc2)ncc1C(F)(F)F (stereo partly drawn)	23.5	26.3	476	567		
CCCNCC(O)COc1ccccc1C(=O)CCc1ccccc1 (stereo not drawn)	23.5	23.5	417	451		
COc1cccc([C@@H](C)NCCCc2ccccc2Cl)c1	20.9	23.5	462	584		
O=C(CCCCCCC(=O)Nc1ccccc1)NO	2.95	3.32	415	474		
CC(C)(C)C[C@H]1N[C@@H](C(=O)N[C@H]2CC[C@H](O)CC2)[C@H](c2cccc(Cl)c2F)[C@@]12C(=O)Nc1cc(Cl)ccc12	1.48	23.5	473	461		
Cc1cc2c(C(C)C)c(O)c(O)c(C=O)c2c(O)c1-c1c(C)cc2c(C(C)C)c(O)c(O)c(C=O)c2c1O	26.3	23.5	529	596		
NC(=O)Nc1cc(-c2cccc(F)c2)sc1C(=O)N[C@H]1CCCNC1		8.33	397	432	410	2.35
Cc1ccc(-n2nc(C(C)(C)C)cc2N/C(O)=N/Cc2cc(F)ccc2Oc2ccc3c(cnn3CCO)c2)cc1		20.9	518	549	522	33.2
CC(C)C(N)C(=O)OCC(CO)OC[N]1C=NC2=C1N\C(=N/C2=O)N (stereo not drawn)		5.25	426	436	436	0.661
N[S+](=O)([O-])c1cccc2c1C(=O)c1cccc(O)c1C2=O		0.661	315	380	370	0.661
Cn1c2ccccc2c2c3c(c4c5ccccc5n(CCC#N)c4c21)CNC3=O		16.6	401	535	503	14.8
CC(=O)O[C@H]1C(=O)[C@]2(C)[C@@H](O)C[C@H]3OC[C@@]3(OC(C)=O)C2[C@H](OC(=O)C4=CC=CC=C4)[C@]5(O)C[C@H](OC(=O)[C@H](O)[C@@H](NC(=O)C6=CC=CC=C6)C7=CC=CC=C7)\C(=C1/C5(C)C)C (stereo partly drawn)		8.33	424	473	379	0.209
O=C(NOCC1CC1)c1ccc(F)c(F)c1Nc1ccc(I)cc1Cl	13.2	16.6	485	527		
N#CC(c1ccnc(NCCc2cccnc2)n1)c1nc2ccccc2s1 (stereo not drawn)		16.6	509	493	410	20.9
CN\1C(=O)/C(=C(\N=C1NC[C@@H](N)CC2=CC=CC=C2)C3=CC=NC=C3)C4=CC5=C(C=CC=C5)C=C4	29.5	37.2	484	571		
CC(C)(O)CC[C@@H](O)[C@](C)(O)[C@H]1CC[C@@]2(O)C/3=C/C(=O)[C@@H]4C[C@@H](O)[C@@H](O)C[C@]4(C)[C@H]3CC[C@]12C	0.132	0.372	192	233		
CN[C@@H](C)C(=O)N[C@H]1CCCC[C@H]2CC[C@@H](C(=O)N[C@@H](c3ccccc3)c3cn(CCCCc4ccc(CCCCn5cc([C@@H](NC(=O)[C@@H]6CC[C@@H]7CCCC[C@H](NC(=O)[C@H](C)NC)C(=O)N76)c6ccccc6)nn5)cc4)nn3)N2C1=O	0.166	0.332	260	303		
CN(C)Cc1ccc([S+](=O)([O-])n2ccc(/C=C/C(=O)NO)c2)cc1		9.34	461	496	465	16.6
OC1=CC2=C(C(=C1)O)C(=O)\C=C(/O2)C3=CC=CC=C3		1.66	397	416	437	0.263
COC1=CC=C2Nc3cc(Cl)ccc3C(N=C3C=C(CN4CCCC4)C(=O)C(CN4CCCC4)=C3)=C2N1	18.6	23.5	477	528		
